Laboratory results reported in ChEMBL document CHEMBL1201862, “PubChem BioAssay data set” (2004).
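Grown in 96-well plates, cells were treated for 48 hours with each compound at five concentrations. Insufficient inhibition: endpoint recorded as highest concentration tested. GI50: concentration for 50% inhibition of growth.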 Calls of active or inactive are those of the source. Cut-off read from the data, not from the text of the source: active = GI50 up to about 1.1 µM and inactive = higher.

Assays:
Test in all cases: DTP human tumour cell line panel, 48 h
[1] = test system: A498
[2] = test system: ACHN
[3] = test system: CCRF-CEM
[4] = test system: DU-145
[5] = test system: HCT-116
[6] = test system: HOP-92
[7] = test system: KM12
[8] = test system: LOX IMVI
[9] = test system: MOLT-4
[10] = test system: NCI-H226
[11] = test system: NCI-H23
[12] = test system: NCI-H522
[13] = test system: OVCAR-3
[14] = test system: OVCAR-8
[15] = test system: RPMI-8226
[16] = test system: SK-OV-3
[17] = test system: SN12C
[18] = test system: U-251
[19] = test system: UACC-257
[20] = test system: UACC-62

Measured: GI50

CC(C)(C)c1ccc(-c2nnc(SCc3ccc(Cl)cc3)n2-c2cccc(C(F)(F)F)c2)cc1
inactive: [1] 31.1 µM | [2] 20.3 µM | [3] 7.87 µM | [4] > 85.3 µM | [5] 4.71 µM | [6] 19.8 µM | [7] 8.2 µM | [8] 31.3 µM | [9] 3.78 µM | [10] 19.7 µM | [11] 10.9 µM | [12] 4.39 µM | [13] 1.87 µM | [14] 15.6 µM | [15] 4.61 µM | [16] 8.32 µM | [17] 4.24 µM | [18] 8.85 µM | [19] 9.95 µM | [20] 22.5 µM

CC(=O)N(CCc1ccccc1)C(C)(C#N)c1ccccc1 (stereo not given)
inactive: [1] > 100 µM | [2] > 100 µM | [3] > 100 µM | [4] > 100 µM | [5] > 100 µM | [6] > 100 µM | [7] > 100 µM | [8] > 100 µM | [9] > 100 µM | [10] > 100 µM | [11] > 100 µM | [12] > 100 µM | [13] > 100 µM | [14] > 100 µM | [15] > 100 µM | [16] > 100 µM | [17] > 100 µM | [18] > 100 µM | [19] > 100 µM | [20] > 100 µM

O=C(NCc1cccs1)OC1CC2CCC1C2 (stereo not given)
inactive: [1] > 100 µM | [2] > 100 µM | [3] > 100 µM | [4] > 100 µM | [5] > 100 µM | [6] > 100 µM | [7] > 100 µM | [8] > 100 µM | [9] > 100 µM | [10] > 100 µM | [11] > 100 µM | [12] > 100 µM | [13] > 100 µM | [14] > 100 µM | [15] > 100 µM | [16] > 100 µM | [17] > 100 µM | [18] > 100 µM | [19] > 100 µM | [20] > 100 µM

C[C@H]1[C@@H](c2ccccc2)O[B-](c2ccccc2)(c2ccccc2)[N+]1(C)C
inactive: [1] 86.1 µM | [2] 34.3 µM | [3] > 100 µM | [4] 57 µM | [5] 49.7 µM | [6] 23.8 µM | [7] > 100 µM | [8] > 100 µM | [9] 43.6 µM | [10] 37.7 µM | [11] 70.1 µM | [12] 35.7 µM | [13] 40.6 µM | [14] 79.3 µM | [15] 31.3 µM | [16] > 100 µM | [17] 99.3 µM | [18] > 100 µM | [19] 84.1 µM | [20] 52 µM
